# What was measured:
# Assay type in all cases: functional
# NCI-H322M [1] = assay: Cytotoxicity against human NCI-H322M cells assessed as cell growth at 10^-4 M after 48 hrs by SRB assay relative to control; conditions: read-out: Activity
# COLO 205 = assay: Cytotoxicity against human COLO205 cells assessed as cell growth at 10^-4 M after 48 hrs by SRB assay relative to control; conditions: COLO 205, 48 h, read-out: Activity
# IGROV-1 [2] = assay: Cytotoxicity against human IGROV1 cells after 48 hrs by SRB assay; conditions: IGROV-1, 48 h
# [3] = Cytotoxicity against human OVCAR3 cells after 48 hrs by SRB assay; conditions: OVCAR-3, 48 h
# [4] = Cytotoxicity against human OVCAR8 cells after 48 hrs by SRB assay; conditions: OVCAR-8, 48 h; for CC50: read-out: LC50 (the source's name)
# [5] = Cytotoxicity against human SKOV3 cells after 48 hrs by SRB assay; conditions: SK-OV-3, 48 h
# 786-0 [6] = assay: Cytotoxicity against human 786-0 cells after 48 hrs by SRB assay; conditions: 786-0, 48 h
# U-251 = assay: Cytotoxicity against human U251 cells assessed as cell growth at 10^-4 M after 48 hrs by SRB assay relative to control; conditions: U-251, 48 h, read-out: Activity
# NCI-H322M [7] = assay: Cytotoxicity against human NCI-H322M cells assessed as cell growth at 10^-8 M after 48 hrs by SRB assay relative to control; conditions: read-out: Activity
# SF-295 [8] = assay: Cytotoxicity against human SF295 cells assessed as cell growth at 10^-8 M after 48 hrs by SRB assay relative to control; conditions: SF-295, 48 h, read-out: Activity
# MDA-MB-435 = assay: Cytotoxicity against human MDA-MB-435 cells assessed as cell growth at 10^-8 M after 48 hrs by SRB assay relative to control; conditions: MDA-MB-435, 48 h, read-out: Activity
# SK-MEL-5 [9] = assay: Cytotoxicity against human SK-MEL-5 cells assessed as cell growth at 10^-4 M after 48 hrs by SRB assay relative to control; conditions: SK-MEL-5, 48 h, read-out: Activity
# A498 = assay: Cytotoxicity against human A498 cells assessed as cell growth at 10^-4 M after 48 hrs by SRB assay relative to control; conditions: A498, 48 h, read-out: Activity
# [10] = Cytotoxicity against human UO31 cells assessed as cell growth at 10^-4 M after 48 hrs by SRB assay relative to control; conditions: UO-31, 48 h, read-out: Activity
# [11] = Cytotoxicity against human SKOV3 cells assessed as cell growth at 10^-8 M after 48 hrs by SRB assay relative to control; conditions: SK-OV-3, 48 h, read-out: Activity
# MDA-MB-468 = assay: Cytotoxicity against human MDA-MB-468 cells assessed as cell growth at 10^-8 M after 48 hrs by SRB assay relative to control; conditions: MDA-MB-468, 48 h, read-out: Activity
# [12] = Cytotoxicity against human EKVX cells assessed as cell growth at 10^-7 M after 48 hrs by SRB assay relative to control; conditions: read-out: Activity
# NCI-H322M [13] = assay: Cytotoxicity against human NCI-H322M cells assessed as cell growth at 10^-7 M after 48 hrs by SRB assay relative to control; conditions: read-out: Activity
# [14] = Cytotoxicity against human HCT116 cells assessed as cell growth at 10^-7 M after 48 hrs by SRB assay relative to control; conditions: HCT-116, 48 h, read-out: Activity
# [15] = Cytotoxicity against human HCT15 cells assessed as cell growth at 10^-7 M after 48 hrs by SRB assay relative to control; conditions: HCT-15, 48 h, read-out: Activity
# KM12 = assay: Cytotoxicity against human KM12 cells assessed as cell growth at 10^-7 M after 48 hrs by SRB assay relative to control; conditions: KM12, 48 h, read-out: Activity
# SW-620 = assay: Cytotoxicity against human SW620 cells assessed as cell growth at 10^-7 M after 48 hrs by SRB assay relative to control; conditions: SW-620, 48 h, read-out: Activity
# SF-268 [16] = assay: Cytotoxicity against human SF268 cells assessed as cell growth at 10^-7 M after 48 hrs by SRB assay relative to control; conditions: SF-268, 48 h, read-out: Activity
# LOX IMVI = assay: Cytotoxicity against human LOXIMVI cells assessed as cell growth at 10^-7 M after 48 hrs by SRB assay relative to control; conditions: read-out: Activity
# SF-268 [17] = assay: Cytotoxicity against human SF268 cells after 48 hrs by SRB assay; conditions: SF-268, 48 h; for CC50: read-out: LC50 (the source's name)
# SNB-19 [18] = assay: Cytotoxicity against human SNB19 cells after 48 hrs by SRB assay; conditions: SNB-19, 48 h; for CC50: read-out: LC50 (the source's name)
# IGROV-1 [19] = assay: Cytotoxicity against human IGROV1 cells assessed as cell growth at 10^-7 M after 48 hrs by SRB assay relative to control; conditions: IGROV-1, 48 h, read-out: Activity
# 786-0 [20] = assay: Cytotoxicity against human 786-0 cells assessed as cell growth at 10^-7 M after 48 hrs by SRB assay relative to control; conditions: 786-0, 48 h, read-out: Activity
# SN12C = assay: Cytotoxicity against human SN12C cells assessed as cell growth at 10^-7 M after 48 hrs by SRB assay relative to control; conditions: read-out: Activity
# [21] = Cytotoxicity against human UO31 cells assessed as cell growth at 10^-7 M after 48 hrs by SRB assay relative to control; conditions: UO-31, 48 h, read-out: Activity
# MCF7 [22] = assay: Cytotoxicity against human MCF7 cells assessed as cell growth at 10^-7 M after 48 hrs by SRB assay relative to control; conditions: MCF7, 48 h, read-out: Activity
# MDA-MB-231 = assay: Cytotoxicity against human MDA-MB-231 cells assessed as cell growth at 10^-7 M after 48 hrs by SRB assay relative to control; conditions: MDA-MB-231, 48 h, read-out: Activity
# SF-295 [23] = assay: Cytotoxicity against human SF295 cells assessed as cell growth at 10^-6 M after 48 hrs by SRB assay relative to control; conditions: SF-295, 48 h, read-out: Activity
# SNB-19 [24] = assay: Cytotoxicity against human SNB19 cells assessed as cell growth at 10^-6 M after 48 hrs by SRB assay relative to control; conditions: SNB-19, 48 h, read-out: Activity
# SK-MEL-5 [25] = assay: Cytotoxicity against human SK-MEL-5 cells assessed as cell growth at 10^-6 M after 48 hrs by SRB assay relative to control; conditions: SK-MEL-5, 48 h, read-out: Activity
# [26] = Cytotoxicity against human UO31 cells assessed as cell growth at 10^-6 M after 48 hrs by SRB assay relative to control; conditions: UO-31, 48 h, read-out: Activity
# MCF7 [27] = assay: Cytotoxicity against human MCF7 cells assessed as cell growth at 10^-6 M after 48 hrs by SRB assay relative to control; conditions: MCF7, 48 h, read-out: Activity
smiles,measurement,setting,value
CC(C)=CCC[C@H](C)c1ccc(C)c2c1OCN(CC1CCNCC1)C2,growth at 100 µM,NCI-H322M [1],-68%
same,growth at 100 µM,COLO 205,-89%
same,GI50,IGROV-1 [2],16.6 µM
same,LC50 (concentration killing 50% of cells),IGROV-1 [2],62.5 µM
same,TGI,IGROV-1 [2],32.2 µM
same,GI50,[3],15.6 µM
same,LC50,[3],62.1 µM
same,TGI,[3],31.1 µM
same,GI50,[4],18.4 µM
same,TGI,[4],34.5 µM
same,CC50,[4],64.6 µM
same,GI50,[5],16.7 µM
same,LC50 (concentration killing 50% of cells),[5],57.8 µM
same,TGI,[5],31.1 µM
same,GI50,786-0 [6],12.1 µM
same,LC50,786-0 [6],56.9 µM
same,TGI,786-0 [6],26.3 µM
same,growth at 100 µM,U-251,-87%
same,growth at 0.01 µM,NCI-H322M [7],98%
same,growth at 0.01 µM,SF-295 [8],92%
same,growth at 0.01 µM,MDA-MB-435,100%
same,growth at 100 µM,SK-MEL-5 [9],-85%
same,growth at 100 µM,A498,-90%
same,growth at 100 µM,[10],-86%
same,growth at 0.01 µM,[11],101%
same,growth at 0.01 µM,MDA-MB-468,94%
same,growth at 0.1 µM,[12],103%
same,growth at 0.1 µM,NCI-H322M [13],99%
same,growth at 0.1 µM,[14],100%
same,growth at 0.1 µM,[15],91%
same,growth at 0.1 µM,KM12,99%
same,growth at 0.1 µM,SW-620,100%
same,growth at 0.1 µM,SF-268 [16],99%
same,growth at 0.1 µM,LOX IMVI,92%
same,GI50,SF-268 [17],16.6 µM
same,TGI,SF-268 [17],33.3 µM
same,CC50,SF-268 [17],66.7 µM
same,GI50,SNB-19 [18],14 µM
same,TGI,SNB-19 [18],29.4 µM
same,CC50,SNB-19 [18],61.8 µM
same,growth at 0.1 µM,IGROV-1 [19],107%
same,growth at 0.1 µM,786-0 [20],88%
same,growth at 0.1 µM,SN12C,102%
same,growth at 0.1 µM,[21],94%
same,growth at 0.1 µM,MCF7 [22],97%
same,growth at 0.1 µM,MDA-MB-231,101%
same,growth at 1 µM,SF-295 [23],87%
same,growth at 1 µM,SNB-19 [24],94%
same,growth at 1 µM,SK-MEL-5 [25],96%
same,growth at 1 µM,[26],91%
same,growth at 1 µM,MCF7 [27],104%
CC(C)=CCC[C@H](C)c1ccc(C)c(CNCC2CCNCC2)c1O,growth at 100 µM,NCI-H322M [1],13%
same,growth at 100 µM,COLO 205,-93%
same,GI50,IGROV-1 [2],9.4 µM
same,LC50 (concentration killing 50% of cells),IGROV-1 [2],> 25 µM
same,TGI,IGROV-1 [2],> 25 µM
same,GI50,[3],8.44 µM
same,LC50,[3],> 25 µM
same,TGI,[3],> 25 µM
same,GI50,[4],4.35 µM
same,TGI,[4],9.66 µM
same,CC50,[4],21.5 µM
same,GI50,[5],6.82 µM
same,LC50 (concentration killing 50% of cells),[5],> 25 µM
same,TGI,[5],> 25 µM
same,GI50,786-0 [6],5.01 µM
same,LC50,786-0 [6],> 25 µM
same,TGI,786-0 [6],11.5 µM
same,growth at 100 µM,U-251,-81%
same,growth at 0.01 µM,NCI-H322M [7],99%
same,growth at 0.01 µM,SF-295 [8],96%
same,growth at 0.01 µM,MDA-MB-435,100%
same,growth at 100 µM,SK-MEL-5 [9],100%
same,growth at 100 µM,A498,43%
same,growth at 100 µM,[10],-29%
same,growth at 0.01 µM,[11],99%
same,growth at 0.01 µM,MDA-MB-468,95%
same,growth at 0.1 µM,[12],94%
same,growth at 0.1 µM,NCI-H322M [13],94%
same,growth at 0.1 µM,[14],98%
same,growth at 0.1 µM,[15],100%
same,growth at 0.1 µM,KM12,97%
same,growth at 0.1 µM,SW-620,95%
same,growth at 0.1 µM,SF-268 [16],97%
same,growth at 0.1 µM,LOX IMVI,95%
same,GI50,SF-268 [17],7.12 µM
same,TGI,SF-268 [17],> 25 µM
same,CC50,SF-268 [17],> 25 µM
same,GI50,SNB-19 [18],3.99 µM
same,TGI,SNB-19 [18],> 25 µM
same,CC50,SNB-19 [18],> 25 µM
same,growth at 0.1 µM,IGROV-1 [19],97%
same,growth at 0.1 µM,786-0 [20],87%
same,growth at 0.1 µM,SN12C,91%
same,growth at 0.1 µM,[21],86%
same,growth at 0.1 µM,MCF7 [22],97%
same,growth at 0.1 µM,MDA-MB-231,101%
same,growth at 1 µM,SF-295 [23],86%
same,growth at 1 µM,SNB-19 [24],93%
same,growth at 1 µM,SK-MEL-5 [25],93%
same,growth at 1 µM,[26],84%
same,growth at 1 µM,MCF7 [27],93%

# Source: ChEMBL document CHEMBL3390836, “Mannich- and LedererManasse-based analogues of the natural product S-(+)-curcuphenol as cancer proliferation and migration inhibitors” (Medchemcomm, 2012)
